Experimental data: ChEMBL document CHEMBL4433240, “Identification and characterization of potent and selective inhibitors targeting protein tyrosine phosphatase 1B (PTP1B)” (Bioorg Med Chem Lett, 2019)
The source made the active and inactive calls. The rule behind the calls is not given here.

What was measured:
[1] = target: T1, Tyrosine-protein phosphatase non-receptor type 1 (Homo sapiens, UniProt P18031); test: Inhibition of PTP1B (unknown origin) assessed as reduction in nitrophenol production using pNPP as substrate incubated for 30 mins by EnVisionMultilable plate reader based method
T1 sequence (P18031 whole entry): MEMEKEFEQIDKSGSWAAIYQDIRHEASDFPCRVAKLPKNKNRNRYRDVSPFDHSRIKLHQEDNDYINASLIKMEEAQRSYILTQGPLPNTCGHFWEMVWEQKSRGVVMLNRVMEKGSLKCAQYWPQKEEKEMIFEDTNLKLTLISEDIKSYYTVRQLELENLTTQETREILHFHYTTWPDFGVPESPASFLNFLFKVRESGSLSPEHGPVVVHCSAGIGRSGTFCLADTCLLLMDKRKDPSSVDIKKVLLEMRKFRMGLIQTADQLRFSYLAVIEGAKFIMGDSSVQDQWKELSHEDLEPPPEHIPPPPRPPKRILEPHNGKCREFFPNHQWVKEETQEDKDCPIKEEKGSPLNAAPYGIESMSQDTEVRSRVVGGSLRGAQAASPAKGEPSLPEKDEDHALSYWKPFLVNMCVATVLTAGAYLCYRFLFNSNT

[2] = target: T2, Tyrosine-protein phosphatase non-receptor type 2 (Homo sapiens, UniProt P17706); test: Inhibition of TCPTP (unknown origin) assessed as reduction in nitrophenol production using pNPP as substrate incubated for 30 mins by EnVisionMultilable plate reader based method
T2 sequence (P17706 whole entry): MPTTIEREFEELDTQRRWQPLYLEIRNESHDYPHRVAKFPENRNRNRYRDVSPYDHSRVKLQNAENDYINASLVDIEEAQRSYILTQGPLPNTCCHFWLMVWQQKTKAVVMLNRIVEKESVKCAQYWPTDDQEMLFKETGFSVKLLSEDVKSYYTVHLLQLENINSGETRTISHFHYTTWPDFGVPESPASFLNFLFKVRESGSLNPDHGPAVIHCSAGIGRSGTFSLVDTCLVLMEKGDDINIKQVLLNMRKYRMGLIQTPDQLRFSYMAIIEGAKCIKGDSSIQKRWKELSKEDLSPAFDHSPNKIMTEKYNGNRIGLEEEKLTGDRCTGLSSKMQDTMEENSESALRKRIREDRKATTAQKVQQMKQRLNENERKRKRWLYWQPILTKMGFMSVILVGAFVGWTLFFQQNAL

Homo sapiens [3] = species on record: Homo sapiens; test: Selectivity ratio of IC50 for TCPTP (unknown origin) using pNPP as substrate to IC50 for PTP1B (unknown origin) using pNPP as substrate
[4] = target: T3, Tyrosine-protein phosphatase non-receptor type 1 (Homo sapiens) (UniProt P18031); test: Competitive inhibition of PTP1B (unknown origin) assessed as increase in Km at 0 to 28.8 uM using varying levels of pNPP as substrate by Lineweaver-Burk plot analysis
T3 sequence (whole entry): T1 sequence (P18031 whole entry)

[5] = target: T3, Tyrosine-protein phosphatase non-receptor type 1 (Homo sapiens); test: Competitive inhibition of PTP1B (unknown origin) assessed as change in V max at 0 to 28.8 uM using varying levels of pNPP as substrate by Lineweaver-Burk plot analysis
[6] = Cytotoxicity against human L02 cells assessed as cell viability at 1 to 250 uM after 72 hrs by WST1 assay; type: cell-based; conditions: read-out: Activity
L02 = test: Cytotoxicity against human L02 cells assessed as reduction in cell viability after 72 hrs by WST1 assay; type: cell-based; conditions: L02, 72 h
[7] = target: T3, Tyrosine-protein phosphatase non-receptor type 1 (Homo sapiens); test: Competitive inhibition of PTP1B (unknown origin) assessed as increase in Km at 0 to 9.6 uM using varying levels of pNPP as substrate by Lineweaver-Burk plot analysis
[8] = target: T3, Tyrosine-protein phosphatase non-receptor type 1 (Homo sapiens); test: Competitive inhibition of PTP1B (unknown origin) assessed as change in V max at 0 to 9.6 uM using varying levels of pNPP as substrate by Lineweaver-Burk plot analysis
Homo sapiens [9] = species on record: Homo sapiens; test: Selectivity ratio of IC50 for TCPTP (unknown origin) to IC50 for human GST-tagged PTP1B
[10] = target: T1, Tyrosine-protein phosphatase non-receptor type 1; test: Inhibition of human FLAG-tagged PTP1B catalytic domain (1 to 298) expressed in Escherichia coli using fluorescein diphosphate as substrate by fluorescence based method
[11] = target: T2, Tyrosine-protein phosphatase non-receptor type 2; test: Inhibition of human FLAG-tagged TCPTP (1 to 296) expressed in Escherichia coli using fluorescein diphosphate as substrate by fluorescence based method

| SMILES | IC50 [1] [µM] | IC50 [2] [µM] | Ratio IC50 (Homo sapiens [3]) | further results |
| --- | --- | --- | --- | --- |
| CCOC(=O)C1=C(C(C)C)NC(=S)N[C@H]1/C=C/c1ccc(Br)cc1 | 11.3 | > 100 | > 8.85 |  |
| COC(=O)C1=C(C(C)C)NC(=S)N[C@H]1/C=C/c1ccc(F)cc1 | 3.33 | > 100 | > 30 | inhibition [4]: Active; inhibition [5]: Active; viability at 72 h, up to 250 µM [6]: > 85%; IC50 (L02): > 250 µM |
| COC(=O)C1=C(C(C)C)NC(=S)N[C@H]1/C=C/c1ccc([N+](=O)[O-])cc1 | > 50 |  |  |  |
| CCOC(=O)C1=C(C(C)C)NC(=S)N[C@H]1/C=C/c1ccc(OC)cc1 | 2.38 | 40.4 | 17 |  |
| COC(=O)C1=C(C(C)(C)C)NC(=S)N[C@H]1/C=C/c1ccc([N+](=O)[O-])cc1 | 11.4 | > 100 | > 8.79 |  |
| COC(=O)C1=C(C(C)(C)C)NC(=S)N[C@H]1/C=C/c1ccc(C(F)(F)F)cc1 | 6.31 | > 100 | > 15.8 |  |
| COC(=O)C1=C(C(C)C)NC(=S)N[C@H]1/C=C/c1ccc(Cl)cc1 | 7.12 | > 100 | > 14 | inhibition [7]: Active; inhibition [8]: Active; viability at 72 h, up to 250 µM [6]: > 85%; IC50 (L02): > 250 µM |
| CC(C)OCc1cc(O)c(O)c(Br)c1Cc1cc(O)c(O)c(Br)c1Br |  |  |  | Ratio IC50 (Homo sapiens [9]): > 50 |
| COC(=O)C1=C(C(C)C)NC(=S)N[C@H]1/C=C/c1ccc(Br)cc1 | 6.28 | > 100 | > 15.9 |  |
| COC(=O)C1=C(C(C)(C)C)NC(=S)N[C@H]1/C=C/c1ccccc1 | > 50 |  |  |  |
| COC(=O)C1=C(C(C)(C)C)NC(=S)N[C@H]1/C=C/c1ccc(Br)cc1 | 11 | 36 | 3.28 |  |
| COC(=O)C1=C(C(C)(C)C)NC(=S)N[C@H]1/C=C/c1ccc(F)cc1 | > 50 |  |  |  |
| COC(=O)C1=C(C(C)(C)C)NC(=S)N[C@H]1/C=C/c1ccc(Cl)cc1 | 6.65 | 54.8 | 8.24 |  |
| COC(=O)C1=C(C(C)C)NC(=S)N[C@H]1/C=C/c1ccc(C(F)(F)F)cc1 | 5.49 | > 100 | > 18.2 |  |
| COC(=O)C1=C(C(C)(C)C)NC(=S)N[C@H]1/C=C/c1ccc(C)cc1 | 16.3 | > 100 | > 6.13 |  |
| COC(=O)C1=C(C(C)C)NC(=S)N[C@H]1/C=C/c1ccccc1 | 18.6 | > 100 | > 5.39 |  |
| CCOC(=O)C1=C(C(C)C)NC(=S)N[C@H]1/C=C/c1ccccc1 | > 50 |  |  |  |
| CCOC(=O)C1=C(C(C)C)NC(=S)N[C@H]1/C=C/c1ccc([N+](=O)[O-])cc1 | > 50 | > 100 |  |  |
| CC1(C)CC[C@]2(C(=O)O)CC[C@]3(C)C(=CC[C@@H]4[C@@]5(C)CC[C@H](O)C(C)(C)[C@@H]5CC[C@]43C)[C@@H]2C1 [OLEANOLIC_ACID] |  |  |  | viability at 72 h, up to 250 µM [6]: < 85% |
| CCOC(=O)C1=C(C(C)C)NC(=S)N[C@H]1/C=C/c1ccc(Cl)cc1 | 4.79 | 35.8 | 7.47 |  |
| CCOC(=O)C1=C(C(C)C)NC(=S)N[C@H]1/C=C/c1ccc(C)cc1 | 7.49 | > 100 | > 13.3 |  |
| CCOC(=O)C1=C(C(C)C)NC(=S)N[C@H]1/C=C/c1ccc(C(F)(F)F)cc1 | 10.3 | > 100 | > 9.66 |  |
| CCOC(=O)C1=C(C(C)C)NC(=S)N[C@H]1/C=C/c1ccc(F)cc1 | > 50 |  |  |  |
| COC(=O)C1=C(C(C)(C)C)NC(=S)N[C@H]1/C=C/c1ccc(OC)cc1 | 5.03 | > 100 | > 19.9 |  |
| COC(CC(C)C)c1ccc2ccc(-c3ccc(CC(Cc4ccc(C(F)(F)P(=O)(O)O)cc4)(c4ccccc4)n4nnc5ccccc54)cc3)c(P(=O)(O)O)c2n1 (configuration not stated) |  |  |  | IC50 [10]: 0.005 µM; IC50 [11]: 0.036 µM |
